Reference: the NIST ThermoML archive (doi:10.1016/j.jct.2006.03.018)

How the values were obtained:
[1] = xn = mol fraction of the nth substance listed; details: 101 kPa, Liquid
[2] = refractive index (Na D-line) (dimensionless); xn = mol fraction of the nth substance listed; details: 101 kPa, Liquid

CC(C)CCO [3-methylbutan-1-ol] + COc1ccccc1
Details	mass density, [1] [kg/m3]	refractive index, [2]	speed of sound, [1] [m/s]	viscosity, [1] [mPa·s]
298.15 K, x2 = 0	807.2	1.405	1241	3.835
298.15 K, x2 = 0.103	825.87	1.4159	1258	2.766
298.15 K, x2 = 0.2001	843.32	1.4269	1275	2.153
298.15 K, x2 = 0.3022	861.74	1.4378	1292	1.736
298.15 K, x2 = 0.3995	879.31	1.4487	1309	1.43
298.15 K, x2 = 0.4944	896.5	1.4579	1327	1.254
298.15 K, x2 = 0.5995	915.66	1.4688	1344	1.136
298.15 K, x2 = 0.6915	932.47	1.4797	1361	1.046
298.15 K, x2 = 0.8022	952.8	1.4906	1378	1.005
298.15 K, x2 = 0.9044	971.6	1.5015	1394	0.956
303.15 K, x2 = 0	803.45	1.403	–	3.261
303.15 K, x2 = 0.103	821.94	1.4138	–	2.408
303.15 K, x2 = 0.2001	839.25	1.4247	–	1.885
303.15 K, x2 = 0.3022	857.55	1.4355	–	1.544
303.15 K, x2 = 0.3995	875.01	1.4463	–	1.253
303.15 K, x2 = 0.4944	892.11	1.4575	–	1.135
303.15 K, x2 = 0.5995	911.16	1.468	–	1.03
303.15 K, x2 = 0.6915	929.01	1.4788	–	0.956
303.15 K, x2 = 0.8022	948.15	1.4896	–	0.938
303.15 K, x2 = 0.9044	966.9	1.5005	–	0.881
308.15 K, x2 = 0	791.86	–	–	–
308.15 K, x2 = 0.1036	808.48	1.3966	–	1.242
308.15 K, x2 = 0.2003	827.18	1.4129	–	1.078
308.15 K, x2 = 0.3055	848.11	1.4287	–	0.961
308.15 K, x2 = 0.4053	867.53	1.4426	–	0.879
308.15 K, x2 = 0.5096	888.55	1.4542	–	0.838
308.15 K, x2 = 0.6015	906.1	1.4673	–	0.821
308.15 K, x2 = 0.7071	924.94	1.4793	–	0.802
308.15 K, x2 = 0.8023	942.78	1.4897	–	0.795
308.15 K, x2 = 0.9044	960.74	1.499	–	0.792

CC(C)O [propan-2-ol] + COc1ccccc1
x2 = 0
Details	mass density, 298.15 K [kg/m3]	mass density, 303.15 K [kg/m3]	mass density, 308.15 K [kg/m3]	refractive index, 298.15 K	refractive index, 303.15 K	refractive index, 308.15 K	speed of sound, 298.15 K [m/s]	viscosity, 298.15 K [mPa·s]	viscosity, 303.15 K [mPa·s]	viscosity, 308.15 K [mPa·s]
[1]	781.36	777.09	772.75	–	–	–	1141	2.042	1.755	1.521
[2]	–	–	–	1.3745	1.3721	1.3702	–	–	–	–

CCO [ethanol] + COc1ccccc1
x2 = 0
Details	mass density, 298.15 K [kg/m3]	mass density, 303.15 K [kg/m3]	mass density, 308.15 K [kg/m3]	refractive index, 298.15 K	refractive index, 303.15 K	refractive index, 308.15 K	speed of sound, 298.15 K [m/s]	viscosity, 298.15 K [mPa·s]	viscosity, 303.15 K [mPa·s]	viscosity, 308.15 K [mPa·s]
[1]	785.91	781.6	777.26	–	–	–	1161	1.073	0.971	0.889
[2]	–	–	–	1.3591	1.3572	1.355	–	–	–	–

CCCCCO [pentan-1-ol] + COc1ccccc1
x2 = 0
Details	mass density, 298.15 K [kg/m3]	mass density, 303.15 K [kg/m3]	mass density, 308.15 K [kg/m3]	refractive index, 298.15 K	refractive index, 303.15 K	refractive index, 308.15 K	speed of sound, 298.15 K [m/s]	viscosity, 298.15 K [mPa·s]	viscosity, 303.15 K [mPa·s]	viscosity, 308.15 K [mPa·s]
[1]	810.92	807.23	803.52	–	–	–	1286	3.403	2.959	2.581
[2]	–	–	–	1.4073	1.405	1.4032	–	–	–	–

COc1ccccc1 [anisole] + CC(C)O
Details	mass density, 298.15 K [kg/m3]	mass density, 303.15 K [kg/m3]	mass density, 308.15 K [kg/m3]	refractive index, 298.15 K	refractive index, 303.15 K	refractive index, 308.15 K	speed of sound, 298.15 K [m/s]	viscosity, 298.15 K [mPa·s]	viscosity, 303.15 K [mPa·s]	viscosity, 308.15 K [mPa·s]
[1], x1 = 0.0964	809.04	804.55	799.99	–	–	–	1168	1.526	1.335	1.178
[1], x1 = 0.1995	836.66	832.04	827.34	–	–	–	1195	1.236	1.101	0.988
[1], x1 = 0.2995	861.3	856.56	851.78	–	–	–	1223	1.111	1	0.906
[1], x1 = 0.3965	882.77	877.97	873.12	–	–	–	1250	1.019	0.923	0.838
[1], x1 = 0.4947	903.09	898.25	893.38	–	–	–	1277	0.959	0.872	0.798
[1], x1 = 0.5932	921.89	917.04	912.14	–	–	–	1304	0.942	0.864	0.792
[1], x1 = 0.6966	940.52	935.67	930.78	–	–	–	1331	0.91	0.837	0.775
[1], x1 = 0.8069	958.9	954.07	949.22	–	–	–	1358	0.879	0.81	0.742
[1], x1 = 0.9052	974.58	969.52	965.01	–	–	–	1384	0.847	0.783	0.72
[1], x1 = 1	989.15	984.45	979.73	–	–	–	1412	0.988	0.913	0.854
[2], x1 = 0.0964	–	–	–	1.3925	1.3901	1.3879	–	–	–	–
[2], x1 = 0.1995	–	–	–	1.4115	1.4075	1.4064	–	–	–	–
[2], x1 = 0.2995	–	–	–	1.4275	1.4244	1.4226	–	–	–	–
[2], x1 = 0.3965	–	–	–	1.4427	1.4399	1.438	–	–	–	–
[2], x1 = 0.4947	–	–	–	1.4571	1.4535	1.451	–	–	–	–
[2], x1 = 0.5932	–	–	–	1.4701	1.467	1.465	–	–	–	–
[2], x1 = 0.6966	–	–	–	1.482	1.4793	1.4763	–	–	–	–
[2], x1 = 0.8069	–	–	–	1.495	1.4923	1.4884	–	–	–	–
[2], x1 = 0.9052	–	–	–	1.5049	1.5018	1.4999	–	–	–	–
[2], x1 = 1	–	–	–	1.5137	1.5113	1.5088	–	–	–	–
